This test relates to immunoglobulin light chain protein WIL-FL T46L. In words: Differential scanning fluorimetry (thermal shift) assay. It counts as binding. As to conditions: Table B; temperature shift [Tm]compound-[Tm]vehicle; recombinant WIL-FL T46L.

In the case of `Cc1cc(N2CC[C@](C)(c3ccccc3)C2)cn2nc(C(=O)NC3(C)CCCN(c4cccc(C(=O)O)n4)C3)nc12` (stereo partly drawn) [Compound 617], the DSF entry was “***** (>2.5° C.=*****)”.
Consider `C[C@]1(c2ccccc2)CCN(c2cc(CO)c3nc(C(=O)N4CCC5(C4)CN(c4cccc(C(=O)O)n4)C5)nn3c2)C1` [Compound 618], for which the DSF entry is on record as “***** (>2.5° C.=*****)”.
Then `COc1cc(N2CCC3(CCN(C(=O)c4nc5c(C)cc(N6CC[C@](C)(c7ccccc7)C6)cn5n4)C3)C2)cc(C(=O)O)n1` (stereo partly drawn) [Compound 619], with “***** (>2.5° C.=*****)”; and `Cc1cc(N2CC[C@](C)(c3ccccc3)C2)cn2nc(C(=O)NC3CCC4CCC3N4c3cccc(C(=O)O)n3)nc12` (stereo partly drawn) [Compound 620], with “***** (>2.5° C.=*****)”.
In the case of `Cc1cc(N2CC[C@](C)(c3ccccc3)C2)cn2nc(C(=O)N3CCC4(CCN4c4ccnc(C(=O)O)c4)C3)nc12` (stereo partly drawn) [Compound 621], the DSF entry is given as “***** (>2.5° C.=*****)”.
As to `Cc1cc(N2CC[C@](C)(c3ccccc3)C2)cn2nc(C(=O)N3CC4C(C3)C4Nc3cccc(C(=O)O)n3)nc12` (stereo partly drawn) [Compound 622], the DSF entry is “***** (>2.5° C.=*****)”.
Regarding `Cc1cc(N2CC[C@](C)(c3ccccc3)C2)cn2nc(C(=O)N[C@H]3C[C@]4(CCN(c5cccc(C(=O)O)n5)C4)C3)nc12` [Compound 623], the DSF entry is “***** (>2.5° C.=*****)”.
Then `Cc1cc(N2CC[C@](C)(c3ccccc3)C2)cn2nc(C(=O)N[C@H]3C[C@@]4(CCN(c5cccc(C(=O)O)n5)C4)C3)nc12` [Compound 624], with “***** (>2.5° C.=*****)”; and `COc1ccc(N2CCC3(CCN(C(=O)c4nc5c(C)cc(N6CC[C@](C)(c7ccccc7)C6)cn5n4)C3)C2)nc1C(=O)O` (stereo partly drawn) [Compound 625], with “***** (>2.5° C.=*****)”.
Turning to `Cc1cc(N2CC[C@](C)(c3ccccc3)C2)cn2nc(C(=O)N3CCC4(CCN(c5cc(C(=O)O)cnn5)C4)C3)nc12` (stereo partly drawn) [Compound 626], the DSF entry is listed as “***** (>2.5° C.=*****)”.
In the case of `Cc1ccc(N2CCC3(CCN(C(=O)c4nc5c(C)cc(N6CC[C@](C)(c7ccccc7)C6)cn5n4)C3)C2)nc1C(=O)O` (stereo partly drawn) [Compound 627], the DSF entry is listed as “***** (>2.5° C.=*****)”.
As for `Cc1cc(N2CC[C@](C)(c3ccccc3)C2)cn2nc(C(=O)N[C@H]3[C@@H]4CN(c5cccc(C(=O)O)n5)C[C@@H]43)nc12` [Compound 628], the DSF entry was “***** (>2.5° C.=*****)”.
Take `Cc1cc(N2CC[C@](C)(c3ccccc3)C2)cn2nc(C(=O)N3CC4CCN(c5cccc(C(=O)O)n5)CC43)nc12` (stereo partly drawn) [Compound 629]: the DSF result is reported as “***** (>2.5° C.=*****)”.
Turning to `COc1cc(N2C[C@H]3CN(C(=O)c4nc5c(C)cc(N6CC[C@](C)(c7ccccc7)C6)cn5n4)C[C@H]3C2)cc(C(=O)O)n1` [Compound 630], the DSF entry is “***** (>2.5° C.=*****)”.
In the case of `CCC1(c2ccccc2)CN(c2cc(C)c3nc(C(=O)N4C[C@@H]5CN(c6cccc(C(=O)O)n6)C[C@@H]5C4)nn3c2)C1` [Compound 631], the DSF entry is on record as “***** (>2.5° C.=*****)”.
For `Cc1cc(N2CC[C@](C)(c3ccccc3)C2)cn2nc(C(=O)NC3CC[C@@H]3Nc3cccc(C(=O)O)n3)nc12` (stereo partly drawn) [Compound 635], the DSF entry is listed as “***** (>2.5° C.=*****)”.
Then `Cc1cc(N2CC[C@](C)(c3ccccc3)C2)cn2nc(C(=O)N3CC4CN(c5cccc(C(=O)O)n5)CC4(C#N)C3)nc12` (stereo partly drawn) [Compound 636, 6-[3a-cyano-5-[8-methyl-6-[(3R)-3-methyl-3-phenyl-pyrrolidin-1-yl]-[1,2,4]triazolo[1,5-a]pyridine-2-carbonyl]-3,4,6,6a-tetrahydro-1H-pyrrolo[3,4-c]pyrrol-2-yl]pyridine-2-carboxylic acid], with “***** (>2.5° C.=*****)”; and `Cc1cc(N2CC[C@](C)(c3ccccc3)C2)cn2nc(C(=O)N3CCc4c(nnn4C4CCC(C(=O)O)C4)C3)nc12` (stereo partly drawn) [Compound 638], with “***** (>2.5° C.=*****)”.
With `Cc1cc(N2CC[C@](C)(c3ccccc3)C2)cn2nc(C(=O)N3CCc4c(nnn4-c4ccnc(C(=O)O)c4)C3)nc12` [Compound 639] the entry was “***** (>2.5° C.=*****)”; with `Cc1cc(N2CC[C@](C)(c3ccccc3)C2)cn2nc(C(=O)N3CCC4(CCC(c5cccc(C(=O)O)n5)C4)C3)nc12` (stereo partly drawn) [Compound 640, 6-[2-[8-methyl-6-[(3R)-3-methyl-3-phenyl-pyrrolidin-1-yl]-[1,2,4]triazolo[1,5-a]pyridine-2-carbonyl]-2-azaspiro[4.4]nonan-8-yl]pyridine-2-carboxylic acid], “***** (>2.5° C.=*****)”.
On to `Cc1cc(N2CC[C@](C)(c3ccccc3)C2)cn2nc(C(=O)NC3CC4(CCN(c5cccc(C(=O)O)n5)CC4)C3)nc12` [Compound 642, 6-[2-[[8-methyl-6-[(3R)-3-methyl-3-phenyl-pyrrolidin-1-yl]-[1,2,4]triazolo[1,5-a]pyridine-2-carbonyl]amino]-7-azaspiro[3.5]nonan-7-yl]pyridine-2-carboxylic acid], for which the DSF result was “***** (>2.5° C.=*****)”.
As for `Cc1cc(N2CC[C@](C)(c3ccccc3)C2)cn2nc(C(=O)N3C[C@@H]4CN(c5cccc(C(=O)O)n5)C[C@]4(C)C3)nc12` [Compound 643], the DSF entry is given as “***** (>2.5° C.=*****)”.
Then `Cc1cc(N2CC[C@](C)(c3ccccc3)C2)cn2nc(C(=O)N3C[C@@H]4CN(c5cccc(C(=O)O)n5)C[C@H]4C3)nc12` [Compound 644], with “***** (>2.5° C.=*****)”; and `Cc1cc(N2CC[C@](C)(c3ccccc3)C2)cn2nc(C(=O)N3CC4CCN(c5cccc(C(=O)O)n5)C4C3)nc12` (stereo partly drawn) [Compound 645], with “***** (>2.5° C.=*****)”.
`Cc1cc(N2CC[C@](C)(c3ccccc3)C2)cn2nc(C(=O)NC3CN(c4cccc(C(=O)O)n4)CC34COC4)nc12` (stereo partly drawn) [Compound 646]: the DSF result is given as “***** (>2.5° C.=*****)”.
`Cc1cc(N2CC[C@](C)(c3ccccc3)C2)cn2nc(C(=O)NCC3CCN(c4cccc(C(=O)O)n4)CC3)nc12` [Compound 647]: the DSF result was “***** (>2.5° C.=*****)”.
As for `Cc1cc(N2CC[C@](C)(c3ccccc3)C2)cn2nc(C(=O)NC3CC4(CCC4Nc4cccc(C(=O)O)n4)C3)nc12` (stereo partly drawn) [Compound 662, 6-((6-(8-methyl-6-((R)-3-methyl-3-phenylpyrrolidin-1-yl)-[1,2,4]triazolo[1,5-a]pyridine-2-carboxamido)spiro[3.3]heptan-1-yl)amino)picolinic acid], the DSF result was “***** (>2.5° C.=*****)”.
Then `Cc1nc(N2CC3(CC(NC(=O)c4nc5c(C)cc(N6CC[C@](C)(c7ccccc7)C6)cn5n4)C3)C2)ccc1C(=O)O` [Compound 663], with “***** (>2.5° C.=*****)”.
With `Cc1cc(N2CC[C@](C)(c3ccccc3)C2)cn2nc(C(=O)NC3CN(c4cccc(C(=O)O)n4)C4(COC4)C3)nc12` (stereo partly drawn) [Compound 664, 6-[7-[[8-methyl-6-[(3R)-3-methyl-3-phenyl-pyrrolidin-1-yl]-[1,2,4]triazolo[1,5-a]pyridine-2-carbonyl]amino]-2-oxa-5-azaspiro[3.4]octan-5-yl]pyridine-2-carboxylic acid] the entry was “***** (>2.5° C.=*****)”; with `Cc1cc(N2CC[C@](C)(c3ccccc3)C2)cn2nc(C(=O)N3CC4(C3)CN(c3cccc(C(=O)O)n3)CCO4)nc12` [Compound 665], “***** (>2.5° C.=*****)”.
In the case of `CO[C@H]1CN(c2cccc(C(=O)O)n2)CC1NC(=O)c1nc2c(C)cc(N3CC[C@](C)(c4ccccc4)C3)cn2n1` (stereo partly drawn) [Compound 666], the DSF entry is listed as “***** (>2.5° C.=*****)”.
With `Cc1cc(N2CC[C@](C)(c3ccccc3)C2)cn2nc(C(=O)NC3CC4(CCN4c4cccc(C(=O)O)n4)C3)nc12` (stereo partly drawn) [Compound 667], the DSF result is listed as “***** (>2.5° C.=*****)”.
As to `Cc1cc(N2CC[C@](C)(c3ccccc3)C2)cn2nc(C(=O)NC3CC4CCC3N4c3cccc(C(=O)O)n3)nc12` (stereo partly drawn) [Compound 668], the DSF result is on record as “***** (>2.5° C.=*****)”.
As to `Cc1cc(N2CC[C@](C)(c3ccccc3)C2)cn2nc(C(=O)NC3COCC4(C3)CN(c3cccc(C(=O)O)n3)C4)nc12` (stereo partly drawn) [Compound 669, 6-(8-(8-methyl-6-((R)-3-methyl-3-phenylpyrrolidin-1-yl)-[1,2,4]triazolo[1,5-a]pyridine-2-carboxamido)-6-oxa-2-azaspiro[3.5]nonan-2-yl)picolinic acid], the DSF result is listed as “***** (>2.5° C.=*****)”.
Then `Cc1cc(N2CC[C@](C)(c3ccccc3)C2)cn2nc(C(=O)N3CCC4(CCC(O)(c5cccc(C(=O)O)n5)C4)C3)nc12` (stereo partly drawn) [Compound 670, 6-[8-hydroxy-2-[8-methyl-6-[(3R)-3-methyl-3-phenyl-pyrrolidin-1-yl]-[1,2,4]triazolo[1,5-a]pyridine-2-carbonyl]-2-azaspiro[4.4]nonan-8-yl]pyridine-2-carboxylic acid], with “***** (>2.5° C.=*****)”.
As to `Cc1cc(N2CC[C@](C)(c3ccccc3)C2)cn2nc(C(=O)N3CCC4(CC(=O)N(c5cccc(C(=O)O)n5)C4)C3)nc12` (stereo partly drawn) [Compound 671, 6-[7-[8-methyl-6-[(3R)-3-methyl-3-phenyl-pyrrolidin-1-yl]-[1,2,4]triazolo[1,5-a]pyridine-2-carbonyl]-3-oxo-2,7-diazaspiro[4.4]nonan-2-yl]pyridine-2-carboxylic acid], the DSF result was “***** (>2.5° C.=*****)”.
Then `Cc1cc(N2CC[C@](C)(c3ccccc3)C2)cn2nc(C(=O)N3CC[C@@]4(CCN(C(=O)C5COC(C(=O)O)C5)C4)C3)nc12` (stereo partly drawn) [Compound 672], with “***** (>2.5° C.=*****)”.
On to `Cc1cc(N2CC[C@](C)(c3ccccc3)C2)cn2nc(C(=O)NC3CC4(CCN(C(=O)CC(C)(O)C(=O)O)C4)C3)nc12` (stereo partly drawn) [Compound 673, 2-hydroxy-2-methyl-4-(2-(8-methyl-6-((R)-3-methyl-3-phenylpyrrolidin-1-yl)-[1,2,4]triazolo[1,5-a]pyridine-2-carboxamido)-6-azaspiro[3.4]octan-6-yl)-4-oxobutanoic acid], for which the DSF result is on record as “***** (>2.5° C.=*****)”.
Take `Cc1cc(N2CC[C@](C)(c3ccccc3)C2)cn2nc(C(=O)N3CCC4(CCC(C5CCC(C(=O)O)CC5)C4)C3)nc12` (stereo partly drawn) [Compound 674, 4-(2-(8-methyl-6-((R)-3-methyl-3-phenylpyrrolidin-1-yl)-[1,2,4]triazolo[1,5-a]pyridine-2-carbonyl)-2-azaspiro[4.4]nonan-7-yl)cyclohexane-1-carboxylic acid]: the DSF entry is given as “***** (>2.5° C.=*****)”.

(Values after patent US20260285857A1, “BICYCLIC AND HETEROCYCLIC AMIDE COMPOUNDS” (priority 2024, published 2026).)
